Test results as given in patent US9399133B2, “Non-invasive automated electrical control systems and methods for monitoring animal conditions” (Rhode Island Board of Education, State of Rhode Island and …, priority 2012, dated 2016).

Tested on: status epilepticus (SE) induced by lithium-pilocarpine (LP)
Assay: Status epilepticus induced by lithium-pilocarpine in rats receiving TFS, alone and combined with subeffective doses of diazepam
Format: in vivo
Description: This study was designed to evaluate status epilepticus (SE) induced by lithium-pilocarpine (LP) in rats receiving TFS, alone and combined with subeffective doses of diazepam, an antiepileptic drug that belongs to the group of benzodiazepines. Diazepam is currently considered one of the drugs of choice to stop SE.

[1] = LP+TFS+DZP group compared with LP, LP+DZP and LP+TFS groups, p<0.001

**Q.** `CN1C(=O)CN=C(c2ccccc2)c2cc(Cl)ccc21` [diazepam] was tested. Which “latency to mild generalized seizure” value [1] did it give?
**A.** significantly increased

**Q.** And the “latency to the establishment of the SE” value [1]?
**A.** significantly increased

**Q.** And the “latency to the first forelimb clonus” value [1]?
**A.** significantly increased

**Q.** What about the “total protection against LP-induced seizures and SE, animals” value (subeffective dose of diazepam combined with TFS (LP+TFS+DZP group), p<0.0001 vs LP, p<0.003 vs LP+DZP) of the same compound?
**A.** 62%

**Q.** What about the “latency and incidence of LP-induced behavioral alterations” value (subeffective doses of diazepam administered prior to the pilocarpine, without TFS, in comparison to the LP group) of the same compound?
**A.** Non-significant changes

**Q.** What about the “rats presenting seizures and SE” value (subeffective doses of diazepam prior to pilocarpine, without TFS (LP+DZP group)) of the same compound?
**A.** All rats presented seizures and SE
